Laboratory results: BindingDB's records for patent US20250136592 (Bridge Medicines, 2025)

molecular target: T1, Protein ENL (Homo sapiens, UniProt Q03111); assay: FRET Assay
T1 sequence (Q03111 whole entry): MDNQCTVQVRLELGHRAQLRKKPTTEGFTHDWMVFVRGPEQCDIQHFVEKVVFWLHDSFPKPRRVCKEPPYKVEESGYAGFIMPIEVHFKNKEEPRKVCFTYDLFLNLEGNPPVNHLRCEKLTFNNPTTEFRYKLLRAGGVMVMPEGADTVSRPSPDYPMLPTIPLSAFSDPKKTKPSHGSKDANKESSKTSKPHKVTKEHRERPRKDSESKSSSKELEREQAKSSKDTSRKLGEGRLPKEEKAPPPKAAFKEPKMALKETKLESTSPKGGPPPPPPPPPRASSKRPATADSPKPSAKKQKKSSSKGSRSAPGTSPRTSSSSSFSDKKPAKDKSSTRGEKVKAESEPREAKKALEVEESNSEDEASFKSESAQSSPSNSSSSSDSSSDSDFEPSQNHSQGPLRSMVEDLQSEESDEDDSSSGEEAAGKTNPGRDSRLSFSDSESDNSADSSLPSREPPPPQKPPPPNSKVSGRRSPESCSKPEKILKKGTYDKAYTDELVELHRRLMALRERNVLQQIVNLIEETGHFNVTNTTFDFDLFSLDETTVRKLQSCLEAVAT
Method: Low control (LC) wells received 5 μL of assay buffer instead of ENL protein. […] The response at each compound concentration minus the LC value was converted to percent inhibition of the vehicle control group response (HC-LC).

Row | IC50 [nM] | Compound
1 | 98 | CN1CCC[C@@H]1c1nc2ccc(NC(=O)c3ccc4c(C5CC5)nn(C)c4c3)cc2[nH]1 [US20250136592, Example 10]
2 | 158 | CN1CCC[C@@H]1c1nc2cc(NC(=O)c3ccc4c(-c5ccncc5)noc4c3)ccc2[nH]1 [US20250136592, Example 13]
3 | 18 | Cc1nccc2cc(C(=O)Nc3cc4[nH]c([C@H]5CCCCN5C)cc4cn3)ccc12 [US20250136592, Example 80]
4 | 56 | CN1CCC[C@@H]1c1cc2cnc(NC(=O)c3ccc4c(c3)nnn4-c3ccncc3)cc2[nH]1 [US20250136592, Example 85]
